Among the data in patent US10000473B2, “Indazole derivatives useful as glucagon receptor antagonists” (Janssen Pharmaceutica NV, priority 2016, dated 2018) are Ki values, retold here.

Each structure is given as a SMILES string.

T1 sequence (P47871 26-477): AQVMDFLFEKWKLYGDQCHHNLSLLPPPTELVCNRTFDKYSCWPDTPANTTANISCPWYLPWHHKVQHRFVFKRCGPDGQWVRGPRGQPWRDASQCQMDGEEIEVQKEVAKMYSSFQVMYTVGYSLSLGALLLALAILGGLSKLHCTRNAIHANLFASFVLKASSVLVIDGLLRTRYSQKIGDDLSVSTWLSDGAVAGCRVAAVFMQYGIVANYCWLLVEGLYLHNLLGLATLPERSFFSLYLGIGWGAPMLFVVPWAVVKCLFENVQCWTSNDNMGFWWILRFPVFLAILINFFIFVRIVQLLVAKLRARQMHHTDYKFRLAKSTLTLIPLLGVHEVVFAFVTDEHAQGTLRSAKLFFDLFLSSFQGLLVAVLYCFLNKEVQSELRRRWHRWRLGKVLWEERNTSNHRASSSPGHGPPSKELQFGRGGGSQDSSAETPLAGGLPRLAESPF

The assay addresses T1, human GCGR (Homo sapiens, UniProt P47871).
T1 construct: expressed in transfected cells; host or cells: HEK293 (hGluc-1HEK), pcDNA3.1, G418 selection
Kind of assay: Cellular functional assay, cAMP readout (glucagon-stimulated cAMP, LANCE TR-FRET). It counts as cell-based. To be noted: HEK293 cells stably expressing full-length human GCGR; glucagon 100 pM; IC50 converted to Ki; read-out: Inhibition of cAMP Ki. The procedure: IC50 Values in Cellular Functional Assays: cAMP Readout
Full-length human GCGR (Accession Number: NM000160) subcloned into pcDNA3.1 was stably transfected into HEK293 cells (hGluc-1HEK) and maintained under G418 selection (500 μg/mL). Cell cultures were maintained in DMEM/F12 media supplemented with 10% FBS and 1% GlutaMax™ Supplement (Available from ThermoFisher Scientific, catalog #35050061). Glucagon stimulated cAMP was quantified using LANCE technology as per manufacturer instructions. On the day of the experiment, spent media was removed and cells were washed with Hank's Buffered Saline solution (HBSS), and cells harvested with non-enzymatic cell dissociation solution, then washed once with HBSS. Cells were re-suspended in stimulation buffer at a concentration of 0.83×10^6 cells/ml and cAMP detection antibody was added. 6 μl/well of this solution was then dispensed in a 384 well plate (cell density 5000 cells/well). Test compound was serially diluted in DMSO and 50 nl were dispensed on top of the cell solution and allowed to incubate for 30 minutes. 6 μl of a 2× glucagon solution (final concentration in assay 100 pM) was then added and the reaction was terminated after 5 minutes with the addition of detection mix. The resulting mixture was incubated, protected from light for 1.5 h. cAMP levels were quantified by TR-FRET in an EnVision instrument against a known standard. IC50's were generated by using a non-linear regression macro driven in Excel and converted to Ki values.
In the case of `Cc1cc(C(F)(F)F)ccc1-c1ccc2c(cnn2C(CCC(F)(F)F)c2ccc(C(=O)NCCC(=O)O)cc2)c1` (stereo not shown) [Compound #44, 3-[[4-[4,4,4-Trifluoro-1-[5-[2-methyl-4-(trifluoromethyl)phenyl]indazol-1-yl]butyl]benzoyl]amino]propanoic acid], the Ki worked out at 160 nM.

As for `O=C(O)CCNC(=O)c1ccc(C(CCC(F)(F)F)n2ncc3cc(-c4cc(Cl)cc(Cl)c4)ccc32)cc1` (stereo not shown) [Compound #45, 3-[[4-[1-[5-(3,5-Dichlorophenyl)indazol-1-yl]-4,4,4-trifluorobutyl]benzoyl]amino]propanoic acid], the inhibitory constant (Ki) came out at 1650 nM.

`Cc1c(-c2ccc(C(C)(C)C)cc2)ccc2c1cnn2C(CC(C)C)c1ccc(C(=O)NCCC(=O)O)cc1` (stereo not shown) [Compound #47, 3-(4-(1-(5-(4-(tert-Butyl)phenyl)-4-methyl-1H-indazol-1-yl)-3-methylbutyl)benzamido)propanoic acid]: the Ki amounted to 92 nM.

Take `Cc1cc(C(F)(F)F)ccc1-c1ccc2nn(C(CCC(F)(F)F)c3ccc(C(=O)NCCC(=O)O)cc3)cc2c1` (stereo not shown) [Compound #50, 3-[[4-[4,4,4-Trifluoro-1-[5-[2-methyl-4-(trifluoromethyl)phenyl]indazol-2-yl]butyl]benzoyl]amino]propanoic acid]: the inhibition constant (Ki) is 47 nM.

For `CC(C)CC(c1ccc(C(=O)NCCC(=O)O)nc1)n1cc2cc(-c3ccc(C(F)(F)F)cc3Cl)ccc2n1` (stereo not shown) [Compound #53, 3-(5-(1-(5-(2-Chloro-4-(trifluoromethyl)phenyl)-2H-indazol-2-yl)-3-methylbutyl)picolinamido)pr-opanoic acid], the Ki was 105 nM.

On to `Cc1cc(C(F)(F)F)ccc1-c1cc2cn(C(CC(C)C)c3ccc(C(=O)NCCC(=O)O)cc3)nc2cc1C` (stereo not shown) [Compound #54, 3-[[4-[3-Methyl-1-[6-methyl-5-[2-methyl-4-(trifluoromethyl)phenyl]indazol-2-yl]butyl]benzoyl]amino]propanoic acid], for which the inhibitory constant (Ki) was 19 nM.

With `Cc1c(-c2ccc(C(F)(F)F)cc2Cl)ccc2c1cnn2C(CC(C)C)c1ccc(C(=O)NCCC(=O)O)cc1` (stereo not shown) [Compound #55, 3-(4-(1-(5-(2-Chloro-4-(trifluoromethyl)phenyl)-4-methyl-1H-indazol-1-yl)-3-methylbutyl)benzamido)propanoic acid], the inhibitory constant (Ki) was found to be 115 nM.

For the compound `CCCC(c1ccc(C(=O)NCCC(=O)O)cc1)n1ncc2cc(-c3ccc(C(C)(C)C)cc3)ccc21` (stereo not shown) [Compound #56, 3-(4-(1-(5-(4-(tert-Butyl)phenyl)-1H-indazol-1-yl)butyl)benzamido)propanoic acid], the inhibition constant Ki amounted to 650 nM.

Turning to `Cc1cc(C(F)(F)F)ccc1-c1ccc2nn(C(CC(C)C)c3ccc(C(=O)NCCC(=O)O)cc3)cc2c1C` (stereo not shown) [Compound #63, 3-(4-(3-Methyl-1-(4-methyl-5-(2-methyl-4-(trifluoromethyl)phenyl)-2H-indazol-2-yl)butyl)benzamido)propanoic acid], the Ki is 28 nM.

Consider `COc1c(-c2ccc(Cl)cc2C)ccc2nn(C(CC(C)C)c3ccc(C(=O)NCCC(=O)O)cc3)cc12` (stereo not shown) [Compound #64, 3-(4-(1-(5-(4-Chloro-2-methylphenyl)-4-methoxy-2H-indazol-2-yl)-3-methylbutyl)benzamido)propanoic acid], for which the Ki was found to be 37 nM.

Take `O=C(O)CCNC(=O)c1ccc(C(c2ccc(C(F)(F)F)cc2)n2cc3cc(-c4ccc(C(F)(F)F)cc4)ccc3n2)cc1` (stereo not shown) [Compound #66, 3-(4-((4-(Trifluoromethyl)phenyl)(5-(4-(trifluoromethyl)phenyl)-2H-indazol-2-yl)methyl)benzamido)propanoic acid]: the Ki stood at 600 nM.

For `CC(C)CC(c1ccc(C(=O)NCCC(=O)O)cc1)n1ncc2c(Cl)c(-c3ccc(C(F)(F)F)cc3)ccc21` (stereo not shown) [Compound #67, 3-(4-(1-(4-Chloro-5-(4-(trifluoromethyl)phenyl)-1H-indazol-1-yl)-3-methylbutyl)benzamido)propanoic acid], the inhibition constant Ki was found to be 245 nM.

With `CC(c1ccc(C(=O)NCCC(=O)O)cc1)n1ncc2cc(-c3ccc(C(C)(C)C)cc3)ccc21` (stereo not shown) [Compound #68, 3-(4-(1-(5-(4-(tert-Butyl)phenyl)-1H-indazol-1-yl)ethyl)benzamido) propanoic acid], the Ki was 2800 nM.

Take `O=C(O)CCNC(=O)c1ccc(C(CCC(F)(F)F)n2ncc3cc(-c4ccc(C(F)(F)F)cc4)ccc32)cc1` (stereo not shown) [Compound #75, 3-[[4-[4,4,4-Trifluoro-1-[5-[4-(trifluoromethyl)phenyl]indazol-1-yl]butyl]benzoyl]amino]propanoic acid]: the Ki came out at 235 nM.

Take `O=C(O)CCNC(=O)c1ccc(C(CCC(F)(F)F)n2ncc3cc(-c4ccc(OC(F)(F)F)cc4)ccc32)cc1` (stereo not shown) [Compound #76, 3-[[4-[4,4,4-Trifluoro-1-[5-[4-(trifluoromethoxy)phenyl]indazol-1-yl]butyl]benzoyl]amino]propanoic acid]: the inhibitory constant (Ki) turned out to be 700 nM.

With `Cc1c(-c2ccc(C(C)(C)C)cc2)ccc2nn(C(CC(C)C)c3ccc(C(=O)NCCC(=O)O)cc3)cc12` (stereo not shown) [Compound #78, 3-(4-(1-(5-(4-(tert-Butyl)phenyl)-4-methyl-2H-indazol-2-yl)-3-methylbutyl)benzamido)propanoic acid], the Ki came out at 35 nM.

As to `CC(C)CC(c1ccc(C(=O)NCCC(=O)O)nc1)n1ncc2cc(-c3cc4ccccc4o3)ccc21` (stereo not shown) [Compound #79, 3-(5-(1-(5-(Benzofuran-2-yl)-1H-indazol-1-yl)-3-methylbutyl)picolinamido)propanoic acid], the inhibition constant (Ki) is 500 nM.

With `CC(C)CC(c1ccc(C(=O)NCCC(=O)O)nc1)n1cc2cc(-c3ccc(Cl)cc3Cl)ccc2n1` (stereo not shown) [Compound #83, 3-(5-(1-(5-(2,4-Dichlorophenyl)-2H-indazol-2-yl)-3-methylbutyl)picolinamido)propanoic acid], the Ki worked out at 336 nM.

`CC(C)C[C@H](c1ccc(C(=O)NCCC(=O)O)cc1)n1ncc2cc(-c3ccc(C(F)(F)F)cc3Cl)ccc21` [Compound #85, 3-[[4-[(1R)-1-[5-[2-Chloro-4-(trifluoromethyl)phenyl]indazol-1-yl]-3-methyl-butyl]benzoyl]amino]propanoic acid]: the Ki came out at 1270 nM.

For `CC(C)C[C@@H](c1ccc(C(=O)NCCC(=O)O)cc1)n1ncc2cc(-c3ccc(C(F)(F)F)cc3Cl)ccc21` [Compound #90, 3-[[4-[(1S)-1-[5-[2-Chloro-4-(trifluoromethyl)phenyl]indazol-1-yl]-3-methyl-butyl]benzoyl]amino]propanoic acid], the Ki came out at 85 nM.

Consider `Cc1cc(C(F)(F)F)ccc1-c1cc2cnn(C(CC(C)C)c3ccc(C(=O)NCCC(=O)O)cc3)c2cc1C` (stereo not shown) [Compound #93, 3-[[4-[3-Methyl-1-[6-methyl-5-[2-methyl-4-(trifluoromethyl)phenyl]indazol-1-yl]butyl]benzoyl]amino]propanoic acid], for which the Ki worked out at 36 nM.

Regarding `Cc1cc2c(cnn2C(CC(C)C)c2ccc(C(=O)NCCC(=O)O)cc2)cc1-c1ccc(C(F)(F)F)cc1Cl` (stereo not shown) [Compound #94, 3-[[4-[1-[5-[2-Chloro-4-(trifluoromethyl)phenyl]-6-methyl-indazol-1-yl]-3-methyl-butyl]benzoyl]amino]propanoic acid], the Ki is 26 nM.

For `Cc1cc2nn(C(CC(C)C)c3ccc(C(=O)NCCC(=O)O)cc3)cc2cc1-c1ccc(C(F)(F)F)cc1Cl` (stereo not shown) [Compound #95, 3-[[4-[1-[5-[2-Chloro-4-(trifluoromethyl)phenyl]-6-methyl-indazol-2-yl]-3-methyl-butyl]benzoyl]amino]propanoic acid], the Ki turned out to be 52 nM.

For the compound `COc1c(-c2ccc(Cl)cc2C)ccc2c1cnn2C(CC(C)C)c1ccc(C(=O)NCCC(=O)O)cc1` (stereo not shown) [Compound #99, 3-(4-(1-(5-(4-Chloro-2-methylphenyl)-4-methoxy-1H-indazol-1-yl)-3-methylbutyl)benzamido)propanoic acid], the Ki was 145 nM.

With `O=C(O)CCNC(=O)c1ccc(C(c2ccc(C(F)(F)F)cc2)n2ncc3cc(-c4ccc(C(F)(F)F)cc4)ccc32)cc1` (stereo not shown) [Compound #101, 3-(4-((4-(Trifluoromethyl)phenyl)(5-(4-(trifluoromethyl)phenyl)-1H-indazol-1-yl)methyl)benzamido)propanoic acid], the Ki worked out at 800 nM.

`Cc1cc(Cl)ccc1-c1cc2cnn(C(CC(C)C)c3ccc(C(=O)NCCC(=O)O)nc3)c2cc1Cl` (stereo not shown) [Compound #102, 3-[[5-[1-[6-Chloro-5-(4-chloro-2-methyl-phenyl)indazol-1-yl]-3-methyl-butyl]pyridine-2-carbonyl]amino]propanoic acid]: the Ki came to 550 nM.

Turning to `COc1c(-c2ccc(C(F)(F)F)cc2Cl)ccc2c1cnn2C(CC(C)C)c1ccc(C(=O)NCCC(=O)O)cc1` (stereo not shown) [Compound #103, 3-(4-(1-(5-(2-Chloro-4-(trifluoromethyl)phenyl)-4-methoxy-1H-indazol-1-yl)-3-methylbutyl)benzamido)propanoic acid], the Ki worked out at 100 nM.

On to `Cc1ccc(-c2ccc3c(cnn3C(CC(C)C)c3ccc(C(=O)NCCC(=O)O)cc3)c2C)c(Cl)c1` (stereo not shown) [Compound #105, 3-(4-(1-(5-(2-Chloro-4-methylphenyl)-4-methyl-1H-indazol-1-yl)-3-methylbutyl)benzamido)propanoic acid], for which the Ki was 800 nM.
